{
  "source": "patent US20200405700A1",
  "about": "(priority 2019, published 2020)",
  "test": "Aerodynamic particle size distribution on Next Generation Impactor (NGI)",
  "assay_type": "physicochemical",
  "details": "sample 14 sprayed by soft mist inhaler, NGI at 30 L/min",
  "protocol": "Sample 14 was sprayed by a soft mist inhaler. Aerodynamic particle size distribution of droplets of sample 14 was measured on a Next Generation Impactor (NGI). Next Generation Impactor operated at a flow rate of 30 L/min was used for determination of particle size distribution. For each of the impactor experiments, the impactor collection stages were coated with a silicone oil. The particle size distribution is expressed in terms of mass median aerodynamic diameter (MMAD) and Geometric Standard Deviation (GSD).",
  "data": [
    {"molecule": "O=C(O[C@H]1C[N+]2(CCCOc3ccccc3)CCC1CC2)C(O)(c1cccs1)c1cccs1.[Br-]", "note": "[Aclidinium bromide, 3(R)-(2-hydroxy-2,2-dithien-2-ylacetoxy)-1-(3-phenoxypropyl)-1-azoniabicy-clo[2.2.2]octane bromide]", "values": [
      {"measurement": "MMAD (mass median aerodynamic diameter)", "value": 4.49, "unit": "μm"}
    ]}
  ]
}
